Common to all, as to format: in vivo
Experiment [1] concerns AMAPA. Description: Pre-emergence biological efficacy. The following applies: Amaranthus palmeri, 312 h, evaluated after 13 days, read-out: damage to plant (100=total damage to plant; 0=no damage to plant). Summed up:
(§1)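 Injury rating (0 = no damage, 100 = plant killed) taken 13 days after a single spray of compound at the chosen dose onto freshly sown pots held 1 day in the glasshouse beforehand.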

In experiment [2] the test system is ECHCG. Description: Pre-emergence biological efficacy. The following applies: Echinochloa crus-galli, 312 h, evaluated after 13 days, read-out: damage to plant (100=total damage to plant; 0=no damage to plant). A digest of the protocol: as §1
In experiment [3] the test system is EPHHL. Nature of the experiment: Pre-emergence biological efficacy. The following applies: Euphorbia heterophylla, 312 h, evaluated after 13 days, read-out: damage to plant (100=total damage to plant; 0=no damage to plant). Summed up:
as §1

For experiment [4], the system named is IPOHE. Description: Pre-emergence biological efficacy. The following applies: Ipomoea hederacea, 312 h, evaluated after 13 days, read-out: damage to plant (100=total damage to plant; 0=no damage to plant). A digest of the protocol:
as §1

For experiment [5], the system named is LOLPE. Nature of the experiment: Pre-emergence biological efficacy. Conditions: Lolium perenne, 312 h, evaluated after 13 days, read-out: damage to plant (100=total damage to plant; 0=no damage to plant). A digest of the protocol: as §1
The test system of experiment [6] is SETFA. Nature of the experiment: Pre-emergence biological efficacy. The following applies: Setaria faberi, 312 h, evaluated after 13 days, read-out: damage to plant (100=total damage to plant; 0=no damage to plant). A digest of the protocol: as §1
Experiment [7] deals with AMAPA. Nature of the experiment: Post-emergence biological efficacy. Conditions: Amaranthus palmeri, 312 h, evaluated after 13 days, read-out: damage to plant (100=total damage to plant; 0=no damage to plant). Summed up: (§2)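 Damage was rated 13 days after treatment, from 0 (none) to 100 (total). Test compounds, formulated in IF50 and diluted with 0.2% Genapol XO80 to final dose, were sprayed on glasshouse plants raised for 14 days from seed.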

Experiment [8] concerns CHEAL. Description: Post-emergence biological efficacy. Conditions: Chenopodium album, 312 h, evaluated after 13 days, read-out: damage to plant (100=total damage to plant; 0=no damage to plant). Summed up: as §2
Experiment [9] has as its system DIGSA. Nature of the experiment: Post-emergence biological efficacy. Conditions: Digitaria sanguinalis, 312 h, evaluated after 13 days, read-out: damage to plant (100=total damage to plant; 0=no damage to plant). Summed up:
as §2

Experiment [10] deals with ECHCG. Description: Post-emergence biological efficacy. Conditions: Echinochloa crus-galli, 312 h, evaluated after 13 days, read-out: damage to plant (100=total damage to plant; 0=no damage to plant). Summed up:
as §2

Experiment [11] concerns ELEIN. Nature of the experiment: Post-emergence biological efficacy. Conditions: 312 h, evaluated after 13 days, read-out: damage to plant (100=total damage to plant; 0=no damage to plant). Summed up: as §2
Experiment [12] has as its system EPHHL. Nature of the experiment: Post-emergence biological efficacy. The following applies: Euphorbia heterophylla, 312 h, evaluated after 13 days, read-out: damage to plant (100=total damage to plant; 0=no damage to plant). Summed up: as §2
The subject of experiment [13] is IPOHE. Nature of the experiment: Post-emergence biological efficacy. The following applies: Ipomoea hederacea, 312 h, evaluated after 13 days, read-out: damage to plant (100=total damage to plant; 0=no damage to plant). A digest of the protocol:
as §2

Experiment [14] has as its system LOLPE. Nature of the experiment: Post-emergence biological efficacy. Conditions: Lolium perenne, 312 h, evaluated after 13 days, read-out: damage to plant (100=total damage to plant; 0=no damage to plant). Summed up:
as §2

Experiment [15] has as its system SETFA. Description: Post-emergence biological efficacy. The following applies: Setaria faberi, 312 h, evaluated after 13 days, read-out: damage to plant (100=total damage to plant; 0=no damage to plant). A digest of the protocol:
as §2

For the compound `CCOC(=O)C1(C)CC(c2cc(-c3ncc(F)cc3Cl)c(F)cc2Cl)=NO1` (stereo not drawn) [Compound 1-331, Ethyl 3-[2-chloro-5-(3-chloro-5-fluoro-2-pyridyl)-4-fluoro-phenyl]-5-methyl-4H-isoxazole-5-carboxylate], the pest or weed control at 250 g/ha was 100% in [1]; 90% in experiment [2]; 100% in experiment [3]; 60% in experiment [4]; 80% in experiment [5]; 100% in experiment [6]. In addition, the pest or weed control at 250 g/ha in experiment [7], in [8], in [9], in experiment [10], in [11] and in experiment [12] was 100% throughout. Also, the pest or weed control at 250 g/ha in experiment [13], in experiment [14] and in experiment [15] was 100% throughout.
In the case of `CCOC(=O)C1(C)CC(c2cc(-c3ccc(C(F)(F)F)nc3Cl)c(F)cc2Cl)=NO1` (stereo not drawn) [Compound 1-655, Ethyl 3-[2-chloro-5-[2-chloro-6-(trifluoromethyl)-3-pyridyl]-4-fluoro-phenyl]-5-methyl-4H-isoxazole-5-carboxylate], the pest or weed control at 250 g/ha in experiment [1] was determined as 100%; in experiment [2] it was 40%; in [3] it was 90%; in [4], 40%; in experiment [5], 40%; in experiment [6], 30%. For the same compound, the pest or weed control at 250 g/ha in experiment [7] stood at 100%; in [8], 100%; in experiment [9], 70%; in [10], 90%; in experiment [11], 80%; in [12] it was 100%. Moreover, the pest or weed control at 250 g/ha came to 100% in experiment [13], 80% in experiment [14] and 90% in experiment [15].
Consider `CCOC(=O)C1(C)CC(c2cc(-c3cc(Cl)cnc3F)c(F)cc2Cl)=NO1` (stereo not drawn) [Compound 1-199, Ethyl 3-[2-chloro-5-(5-chloro-2-fluoro-3-pyridyl)-4-fluoro-phenyl]-5-methyl-4H-isoxazole-5-carboxylate], for which the pest or weed control at 250 g/ha in [1] came out at 80%; in [2], 0%; in experiment [3], 30%; in [4] it was 0%; in [5] it was 10%; in experiment [6] it was 10%. The pest or weed control at 250 g/ha worked out at 100% in experiment [7]; 90% in [8]; 50% in experiment [9]; 70% in experiment [10]; 20% in experiment [11]; 90% in experiment [12]. Moreover, the values for the pest or weed control at 250 g/ha in experiment [13], in experiment [14] and in experiment [15] were 100%, 40% and 60%, respectively.
Take `CCOC(=O)C1(C)CC(c2cc(-c3cnc4ccc(C(F)(F)F)cc4n3)c(F)cc2Cl)=NO1` (stereo not drawn) [Compound 1-763, Ethyl 3-[2-chloro-4-fluoro-5-[7-(trifluoromethyl)quinoxalin-2-yl]phenyl]-5-methyl-4H-isoxazole-5-carboxylate]: the pest or weed control at 250 g/ha in experiment [1], in experiment [2], in experiment [3], in [4], in [5] and in experiment [6] was 0% throughout. Also, the pest or weed control at 250 g/ha in [7] is 20%; in experiment [8], 20%; in experiment [9], 0%; in [10] it was 0%; in experiment [11], 0%; in [12], 20%. In addition, the pest or weed control at 250 g/ha was 10% in experiment [13], 0% in experiment [14] and 0% in [15].
Turning to `CCOC(=O)C1(C)CC(c2cc(-c3cc(Cl)nc(OC)c3)c(F)cc2Cl)=NO1` (stereo not drawn) [Compound 1-523, Ethyl 3-[2-chloro-5-(2-chloro-6-methoxy-4-pyridyl)-4-fluoro-phenyl]-5-methyl-4H-isoxazole-5-carboxylate], the pest or weed control at 250 g/ha in [1] is 0%; in experiment [2], 20%; in [3], 0%; in experiment [4] it was 0%; in [5], 0%; in [6], 0%. Moreover, the pest or weed control at 250 g/ha came to 50% in experiment [7]; 40% in experiment [8]; 50% in [9]; 20% in experiment [10]; 10% in experiment [11]; 50% in [12]. The pest or weed control at 250 g/ha worked out at 60% in experiment [13], 0% in [14] and 50% in experiment [15].
On to `CCOC(=O)C1(C)CC(c2cc(-c3ncc(Cl)cc3C(F)(F)F)c(F)cc2Cl)=NO1` (stereo not drawn) [Compound 1-343, Ethyl 3-[2-chloro-5-[5-chloro-3-(trifluoromethyl)-2-pyridyl]-4-fluoro-phenyl]-5-methyl-4H-isoxazole-5-carboxylate], for which the pest or weed control at 250 g/ha is 70% in experiment [1]; 30% in [2]; 50% in experiment [3]; 60% in experiment [4]; 20% in [5]; 50% in experiment [6]. Also, the pest or weed control at 250 g/ha worked out at 100% in [7]; 100% in [8]; 100% in [9]; 80% in experiment [10]; 100% in experiment [11]; 100% in [12]. Further, the results for the pest or weed control at 250 g/ha in [13], in experiment [14] and in experiment [15] were 100%, 60% and 100%, respectively.
For `CCOC(=O)C1(C)CC(c2cc(-c3cnc4c(c3)OC(F)(F)O4)ccc2C#N)=NO1` (stereo not drawn) [Compound 2-451, Ethyl 3-[2-cyano-5-(2,2-difluoro-[1,3]dioxolo[4,5-b]pyridin-6-yl)phenyl]-5-methyl-4H-isoxazole-5-carboxylate], the pest or weed control at 250 g/ha in [1] was found to be 90%; in experiment [2], 60%; in experiment [3], 0%; in [4], 0%; in experiment [5], 40%; in [6], 70%. Besides, the pest or weed control at 250 g/ha in experiment [7] amounted to 40%; in experiment [8], 50%; in experiment [9], 50%; in [10] it was 30%; in experiment [11], 70%; in experiment [12], 70%. The pest or weed control at 250 g/ha in experiment [13] stood at 30%; in [14], 20%; in [15], 40%.
As to `CCOC(=O)C1(C)CC(c2cc(-c3ncc(C(C)(F)F)cc3Cl)c(F)cc2Cl)=NO1` (stereo not drawn) [Compound 1-595, ethyl 3-[2-chloro-5-[3-chloro-5-(1,1-difluoroethyl)-2-pyridyl]-4-fluoro-phenyl]-5-methyl-4H-isoxazole-5-carboxylate], the pest or weed control at 250 g/ha came to 100% in experiment [1]; 100% in experiment [2]; 100% in [3]; 80% in experiment [4]; 90% in experiment [5]; 100% in experiment [6]. Also, the pest or weed control at 250 g/ha in [7], in experiment [8], in experiment [9], in [10], in experiment [11] and in [12] was 100% throughout. The pest or weed control at 250 g/ha in [13], in experiment [14] and in experiment [15] was 100% each time.

Source of the values: patent publication US20240124432A1, “HERBICIDAL COMPOUNDS” (SYNGENTA CROP PROTECTION AG, priority 2020, published 2024).
